{"source": "patent US10881642B2", "about": "“Autophagy enhancer and use thereof” (Industry-Academic Cooperation Foundation, Yonsei University, priority 2016, dated 2021)", "tested_on": "primary peritoneal macrophages", "test": "IL-1β ELISA / inflammasome activation in macrophages", "type": "cell-based, C57BL/6 mice", "protocol": "FIG. 5 is the results indicating the present compound MSL reduces the activation of inflammasome and enhances the function of mitochondria. FIG. 5A is the results of the experiment in which primary peritoneal macrophages were isolated and treated with palmitic acid, LPS and MSL and then the concentration of IL-beta was measured from the supernatant using ELISA. Error bars, S.D. **, P<0.01; ***, P<0.001, two-way ANOVA. […]\nScreening of autophagy enhancer. […] Firefly luciferase was determined after mixing 5 μl of lysate with 25 μl of Luciferase Assay Reagent II. Renilla luciferase was then determined after further addition of 20 ul of Stop&Glo Reagent. […] Cytotoxicity was determined by the measurement of LDH release in cell culture media using the LDH kit (Roche), according to the protocol from the manufacturer. […] Imaging and image quantification. […] Formation of acidic vesicular organelles was quantitated by staining the cells with acridine orange (Invitrogen, 5 ug/ml, 10 min). […] Cells or tissues were solubilized in lysis buffer supplemented with protease and phosphatase inhibitors and protein concentration was measured by the Bradford method. Ten to 30 micrograms were loaded on 4-12% Bis-Tris gel (NUPAGE, Invitrogen) or 8-15% SDS-PAGE, transferred to PVDF membranes and analyzed by western blot using the ECL method (Pierce). […]"}
{"smiles": "CSc1oc(-c2ccccc2)nc1S(=O)(=O)c1ccc(F)cc1", "note": "[MSL]", "values": [{"measurement": "release of IL-1β measured by ELISA", "setting": "PA in combination with LPS", "result": "significantly decreased"}, {"measurement": "caspase-1 cleavage and IL-1 β maturation (Western blot)", "setting": "data not shown", "result": "decreased"}]}
